Experimental data from ChEMBL document CHEMBL1137771, “Non-nucleoside inhibitors of HCV polymerase NS5B. Part 2: Synthesis and structure-activity relationships of benzothiazine-substituted quinolinediones” (Bioorg Med Chem Lett, 2009).
pEC50, pIC50: −log10 of the molar value.

System: not listed separately
Test: Cytotoxicity against human 2209-23 cells by WST1 assay
Assay type: cell-based
Conditions: not given

Row | Compound | CC50 [µM]
1 | CS(=O)(=O)Nc1ccc2c(c1)S(=O)(=O)C=C(c1c(O)c3ccccc3n(Cc3ccc(F)cc3)c1=O)N2 | > 50
2 | CS(=O)(=O)Nc1ccc2c(c1)S(=O)(=O)C=C(c1c(O)c3c(Cl)cccc3n(Cc3ccc(F)cc3)c1=O)N2 | > 50
3 | CS(=O)(=O)Nc1ccc2c(c1)S(=O)(=O)C=C(c1c(O)c3cccc(F)c3n(Cc3ccc(F)cc3)c1=O)N2 | > 50
4 | CS(=O)(=O)Nc1ccc2c(c1)S(=O)(=O)C=C(c1c(O)c3cc(F)ccc3n(Cc3ccccc3)c1=O)N2 | > 50
5 | CS(=O)(=O)NCc1ccc2c(c1)S(=O)(=O)C=C(c1c(O)c3cc(F)ccc3n(Cc3ccc(F)cc3)c1=O)N2 | > 50
6 | COc1ccc2c(c1)c(O)c(C1=CS(=O)(=O)c3cc(NS(C)(=O)=O)ccc3N1)c(=O)n2Cc1ccc(F)cc1 | > 50
7 | CS(=O)(=O)Nc1ccc2c(c1)S(=O)(=O)C=C(c1c(O)c3ccc(F)cc3n(Cc3ccc(F)cc3)c1=O)N2 | > 50
8 | CS(=O)(=O)Nc1ccc2c(c1)S(=O)(=O)C=C(c1c(O)c3cc(F)ccc3n(Cc3ccc(F)c(Cl)c3)c1=O)N2 | > 50
9 | CNC(=O)COc1ccc2c(c1)S(=O)(=O)C=C(c1c(O)c3cc(F)ccc3n(Cc3ccc(F)cc3)c1=O)N2 | > 50
10 | CS(=O)(=O)Nc1ccc2c(c1)S(=O)(=O)C=C(c1c(O)c3cc(F)ccc3n(Cc3ccc(F)c(F)c3)c1=O)N2 | > 50
11 | CS(=O)(=O)Nc1ccc2c(c1)S(=O)(=O)C=C(c1c(O)c3cc(F)ccc3n(Cc3ccccn3)c1=O)N2 | > 50
12 | O=c1c(C2=CS(=O)(=O)c3cc(O)ccc3N2)c(O)c2cc(F)ccc2n1Cc1ccc(F)cc1 | > 50
13 | CS(=O)(=O)Nc1ccc2c(c1)S(=O)(=O)C=C(c1c(O)c3cc(F)ccc3n(CC3CCCCC3)c1=O)N2 | > 50
14 | COc1cc(Cn2c(=O)c(C3=CS(=O)(=O)c4cc(NS(C)(=O)=O)ccc4N3)c(O)c3cc(F)ccc32)ccc1F | > 50
15 | Cc1ccc2c(c1)c(O)c(C1=CS(=O)(=O)c3cc(NS(C)(=O)=O)ccc3N1)c(=O)n2Cc1ccc(F)cc1 | > 50
16 | CS(=O)(=O)Nc1ccc2c(c1)S(=O)(=O)C=C(c1c(O)c3ccc(Cl)cc3n(Cc3ccc(F)cc3)c1=O)N2 | > 50
17 | CS(=O)(=O)c1ccc2c(c1)S(=O)(=O)C=C(c1c(O)c3cc(F)ccc3n(Cc3ccc(F)cc3)c1=O)N2 | > 50

System: Hepatitis C virus
Test: Ratio of EC50 for HCV genotype 1b isolate con1 in presence of human serum albumin to EC50 for HCV genotype 1b isolate con1 in presence of fetal bovine serum
Assay type: functional, Hepacivirus hominis
Conditions: not given

Row | Compound | fold change (FC)
18 | CS(=O)(=O)Nc1ccc2c(c1)S(=O)(=O)C=C(c1c(O)c3ccccc3n(Cc3ccc(F)cc3)c1=O)N2 | 13
19 | CS(=O)(=O)Nc1ccc2c(c1)S(=O)(=O)C=C(c1c(O)c3c(Cl)cccc3n(Cc3ccc(F)cc3)c1=O)N2 | 12.3
20 | CS(=O)(=O)Nc1ccc2c(c1)S(=O)(=O)C=C(c1c(O)c3cccc(F)c3n(Cc3ccc(F)cc3)c1=O)N2 | 26.9
21 | CS(=O)(=O)Nc1ccc2c(c1)S(=O)(=O)C=C(c1c(O)c3cc(F)ccc3n(Cc3ccccc3)c1=O)N2 | 9.2
22 | COc1ccc2c(c1)c(O)c(C1=CS(=O)(=O)c3cc(NS(C)(=O)=O)ccc3N1)c(=O)n2Cc1ccc(F)cc1 | 14.3
23 | CS(=O)(=O)Nc1ccc2c(c1)S(=O)(=O)C=C(c1c(O)c3ccc(F)cc3n(Cc3ccc(F)cc3)c1=O)N2 | 12.1
24 | COc1cc(Cn2c(=O)c(C3=CS(=O)(=O)c4cc(NS(C)(=O)=O)ccc4N3)c(O)c3cc(F)ccc32)ccc1F | 9.2

System: Hepatitis C virus
Test: Antiviral activity against HCV genotype 1b isolate con1 infected in human 2209-23 cells assessed as inhibition of [3H]thymidine incorporation into DNA by scintillation proximity assay in presence of 5% fetal bovine serum
Assay type: functional, organism-based, Hepacivirus hominis
Conditions: isolate Con1, 2209-23

Row | Compound | pEC50
25 | CS(=O)(=O)Nc1ccc2c(c1)S(=O)(=O)C=C(c1c(O)c3ccccc3n(Cc3ccc(F)cc3)c1=O)N2 | 7.38
26 | CS(=O)(=O)Nc1ccc2c(c1)S(=O)(=O)C=C(c1c(O)c3c(Cl)cccc3n(Cc3ccc(F)cc3)c1=O)N2 | 7.32
27 | CS(=O)(=O)Nc1ccc2c(c1)S(=O)(=O)C=C(c1c(O)c3cccc(F)c3n(Cc3ccc(F)cc3)c1=O)N2 | 6.99
28 | CS(=O)(=O)Nc1ccc2c(c1)S(=O)(=O)C=C(c1c(O)c3cc(F)ccc3n(Cc3ccccc3)c1=O)N2 | 7.36
29 | CS(=O)(=O)Nc1ccc2c(c1)S(=O)(=O)C=C(c1c(O)c3cc(F)ccc3n(Cc3ccc(F)c(F)c3)c1=O)N2 | 7.82
30 | CS(=O)(=O)Nc1ccc2c(c1)S(=O)(=O)C=C(c1c(O)c3cc(F)ccc3n(Cc3ccccn3)c1=O)N2 | 5.92
31 | CS(=O)(=O)Nc1ccc2c(c1)S(=O)(=O)C=C(c1c(O)c3cc(F)ccc3n(CC3CCCCC3)c1=O)N2 | 7.00
32 | COc1cc(Cn2c(=O)c(C3=CS(=O)(=O)c4cc(NS(C)(=O)=O)ccc4N3)c(O)c3cc(F)ccc32)ccc1F | 7.00
33 | CS(=O)(=O)Nc1ccc2c(c1)S(=O)(=O)C=C(c1c(O)c3ccc(Cl)cc3n(Cc3ccc(F)cc3)c1=O)N2 | 5.64

The remaining lines, values ahead:

Row | pEC50 | Compound
34 | 5.16 | CS(=O)(=O)NCc1ccc2c(c1)S(=O)(=O)C=C(c1c(O)c3cc(F)ccc3n(Cc3ccc(F)cc3)c1=O)N2
35 | 6.84 | COc1ccc2c(c1)c(O)c(C1=CS(=O)(=O)c3cc(NS(C)(=O)=O)ccc3N1)c(=O)n2Cc1ccc(F)cc1
36 | 7.13 | CS(=O)(=O)Nc1ccc2c(c1)S(=O)(=O)C=C(c1c(O)c3ccc(F)cc3n(Cc3ccc(F)cc3)c1=O)N2
37 | 7.74 | CS(=O)(=O)Nc1ccc2c(c1)S(=O)(=O)C=C(c1c(O)c3cc(F)ccc3n(Cc3ccc(F)c(Cl)c3)c1=O)N2
38 | 6.06 | CNC(=O)COc1ccc2c(c1)S(=O)(=O)C=C(c1c(O)c3cc(F)ccc3n(Cc3ccc(F)cc3)c1=O)N2
39 | 5.76 | O=c1c(C2=CS(=O)(=O)c3cc(O)ccc3N2)c(O)c2cc(F)ccc2n1Cc1ccc(F)cc1
40 | 7.60 | Cc1ccc2c(c1)c(O)c(C1=CS(=O)(=O)c3cc(NS(C)(=O)=O)ccc3N1)c(=O)n2Cc1ccc(F)cc1
41 | 4.92 | CS(=O)(=O)c1ccc2c(c1)S(=O)(=O)C=C(c1c(O)c3cc(F)ccc3n(Cc3ccc(F)cc3)c1=O)N2

System: Hepatitis C virus
Test: Inhibition of HCV genotype 1b isolate con1 NS5B polymerase assessed as incorporation of radiolabeled nucleotide into RNA product
Parameters: species or system Hepacivirus hominis
Conditions: not given

Row | Compound | pIC50
42 | CS(=O)(=O)Nc1ccc2c(c1)S(=O)(=O)C=C(c1c(O)c3ccccc3n(Cc3ccc(F)cc3)c1=O)N2 | 8.70
43 | CS(=O)(=O)Nc1ccc2c(c1)S(=O)(=O)C=C(c1c(O)c3c(Cl)cccc3n(Cc3ccc(F)cc3)c1=O)N2 | 7.92
44 | CS(=O)(=O)Nc1ccc2c(c1)S(=O)(=O)C=C(c1c(O)c3cccc(F)c3n(Cc3ccc(F)cc3)c1=O)N2 | 8.10
45 | CS(=O)(=O)Nc1ccc2c(c1)S(=O)(=O)C=C(c1c(O)c3cc(F)ccc3n(Cc3ccccc3)c1=O)N2 | 8.15
46 | CS(=O)(=O)Nc1ccc2c(c1)S(=O)(=O)C=C(c1c(O)c3cc(F)ccc3n(Cc3ccc(F)c(F)c3)c1=O)N2 | 7.85
47 | CS(=O)(=O)Nc1ccc2c(c1)S(=O)(=O)C=C(c1c(O)c3cc(F)ccc3n(Cc3ccccn3)c1=O)N2 | 6.99
48 | CS(=O)(=O)Nc1ccc2c(c1)S(=O)(=O)C=C(c1c(O)c3cc(F)ccc3n(CC3CCCCC3)c1=O)N2 | 7.74
49 | COc1cc(Cn2c(=O)c(C3=CS(=O)(=O)c4cc(NS(C)(=O)=O)ccc4N3)c(O)c3cc(F)ccc32)ccc1F | 8.00
50 | CS(=O)(=O)Nc1ccc2c(c1)S(=O)(=O)C=C(c1c(O)c3ccc(Cl)cc3n(Cc3ccc(F)cc3)c1=O)N2 | 6.42

Continued, values first:

Row | pIC50 | Compound
51 | 7.17 | CS(=O)(=O)NCc1ccc2c(c1)S(=O)(=O)C=C(c1c(O)c3cc(F)ccc3n(Cc3ccc(F)cc3)c1=O)N2
52 | 8.30 | COc1ccc2c(c1)c(O)c(C1=CS(=O)(=O)c3cc(NS(C)(=O)=O)ccc3N1)c(=O)n2Cc1ccc(F)cc1
53 | 8.00 | CS(=O)(=O)Nc1ccc2c(c1)S(=O)(=O)C=C(c1c(O)c3ccc(F)cc3n(Cc3ccc(F)cc3)c1=O)N2
54 | 7.80 | CS(=O)(=O)Nc1ccc2c(c1)S(=O)(=O)C=C(c1c(O)c3cc(F)ccc3n(Cc3ccc(F)c(Cl)c3)c1=O)N2
55 | 7.60 | CNC(=O)COc1ccc2c(c1)S(=O)(=O)C=C(c1c(O)c3cc(F)ccc3n(Cc3ccc(F)cc3)c1=O)N2
56 | 7.16 | O=c1c(C2=CS(=O)(=O)c3cc(O)ccc3N2)c(O)c2cc(F)ccc2n1Cc1ccc(F)cc1
57 | 7.77 | Cc1ccc2c(c1)c(O)c(C1=CS(=O)(=O)c3cc(NS(C)(=O)=O)ccc3N1)c(=O)n2Cc1ccc(F)cc1
58 | 5.43 | CS(=O)(=O)c1ccc2c(c1)S(=O)(=O)C=C(c1c(O)c3cc(F)ccc3n(Cc3ccc(F)cc3)c1=O)N2

System: Hepatitis C virus
Test: Antiviral activity against HCV genotype 1b isolate con1 infected in human 2209-23 cells assessed as inhibition of [3H]thymidine incorporation into DNA by scintillation proximity assay in presence of 40% human serum albumin
Assay type: functional, organism-based, Hepacivirus hominis
Conditions: isolate Con1, 2209-23

Row | Compound | pEC50
59 | CS(=O)(=O)Nc1ccc2c(c1)S(=O)(=O)C=C(c1c(O)c3ccccc3n(Cc3ccc(F)cc3)c1=O)N2 | 6.27
60 | CS(=O)(=O)Nc1ccc2c(c1)S(=O)(=O)C=C(c1c(O)c3c(Cl)cccc3n(Cc3ccc(F)cc3)c1=O)N2 | 6.23
61 | CS(=O)(=O)Nc1ccc2c(c1)S(=O)(=O)C=C(c1c(O)c3cccc(F)c3n(Cc3ccc(F)cc3)c1=O)N2 | 5.56
62 | CS(=O)(=O)Nc1ccc2c(c1)S(=O)(=O)C=C(c1c(O)c3cc(F)ccc3n(Cc3ccccc3)c1=O)N2 | 6.39
63 | COc1cc(Cn2c(=O)c(C3=CS(=O)(=O)c4cc(NS(C)(=O)=O)ccc4N3)c(O)c3cc(F)ccc32)ccc1F | 6.28

Other lines, results leading:

Row | pEC50 | Compound
64 | 5.69 | COc1ccc2c(c1)c(O)c(C1=CS(=O)(=O)c3cc(NS(C)(=O)=O)ccc3N1)c(=O)n2Cc1ccc(F)cc1
65 | 6.05 | CS(=O)(=O)Nc1ccc2c(c1)S(=O)(=O)C=C(c1c(O)c3ccc(F)cc3n(Cc3ccc(F)cc3)c1=O)N2
